# From paper PMC6406907, “A H2AX–CARP-1 Interaction Regulates Apoptosis Signaling Following DNA Damage” (Cancers, 2019)
# No end group written: not given here.
# Key:
# [1] = system: CARP-1, phospho-JNK1/2, phospho-H2AX, PARP; test: Western blot of CARP-1, phospho-JNK1/2, γH2AX, cleaved PARP in MDA-MB-468; type: cell-based, human
# [2] = system: MDA-MB-231 HBC cells; details: MDA-MB-231, compared with untreated counterparts; ref [34]; cited from earlier work
# [3] = system: DBC1 (CCAR2); test: Co-immunoprecipitation with Dbc1 (CCAR2); type: cell-based; details: Dbc1-expressing PT67 (NIH3T3 murine fibroblast subline) cells, anti-Flag IP
# Procedure: (Clontech) were first transfected with recombinant PLNCX2/Flag-Dbc1 plasmid (10), and stable, neomycin-resistant sublines were generated and characterized for Dbc1 expression essentially as described by us before (5; [35]). The Dbc1 expressing PT67 cells were then separately transfected with pcDNA3 vector, pcDNA3-Gst, pcDNA3-Gst-H2AX, pcDNA3-EGFP, or pcDNA3-EGFP-H2AX (1–35) plasmids. Approximately 1mg of cell lysate from each of transfected, Dbc1-expressing, PT67 cells was subjected to immunoprecipitation using anti-Flag tag M2 antibodies (F1804, Sigma). The immunoprecipitates were then analyzed by WB by probing the membrane with anti-Gst (top autoradiograph), anti-p53 D2H90 rodent specific rabbit mAb (32532S; Cell Signaling; 2nd autoradiograph from top), or anti-Fag tag (for Dbc1) antibodies (3rd autoradiograph from top). The membranes containing […] of respective cell lysates (marked as whole cell lysates) were subsequently probed with anti-Gst tag (Bottom left autoradiograph) or anti-EGFP antibodies (Bottom right autoradiograph) to ascertain expression of transfected, Gst, Gst-tagged H2AX proteins, EGFP, and EGFP-H2AX (1–35) proteins. The presence of respective proteins is indicated by an arrowhead on the left side of each blot. Approximate location of various molecular weight markers is indicated on the right side of each blot. kDa, kilodalton.
# © 2019 by the authors. […]
# [4] = system: Gst-H2AX; test: Gst-pulldown with Gst-H2AX; type: binding, human; details: E. coli-expressed, 4 °C, 2 h, WB anti-HA, Figure 5A
# Procedure: (§1) Logarithmically growing cells were either untreated or treated with different agents for various time periods. The cells were lysed to prepare protein extracts. IP was carried out by incubating approximately 1 mg of the protein lysate with appropriate antibodies. The immunoprecipitates were then analyzed by SDS-PAGE, followed by WB with respective, interacting protein. For Gst-pulldown, Gst-H2AX or various His-TAT-HA-tagged CARP-1 peptides were generated in Escherichia coli (E. coli) BL21 cells essentially as described by us previously. Briefly, the competent E. coli BL-21 (DE3) pLysS cells were transformed separately with various recombinant pGEX-4T-1 or pTAT-HA constructs. The transformed cells were then subjected to selection by combined presence of ampicillin and chloramphenicol; various isolates for each transformation were obtained and bacterial lysates were characterized for expression of fusion peptides. Cells from each isolate were grown in 4 mL of LB medium containing ampicillin only until the optical density (OD)600 reached 0.4–0.8. Expression of fusion peptides was induced over 2–4 h incubation periods after Isopropyl β-D-1-thiogalactopyranoside (IPTG) addition. The cells were harvested, and pellets were stored at −80 °C overnight. […]
# [5] = system: Gst-H2AX (1–35); test: Gst-pulldown with Gst-H2AX (1–35); type: binding, human; details: E. coli-expressed, 4 °C, 2 h, WB anti-HA, Figure 5B
# Procedure: as §1
# [6] = molecular target: T1, H2AX (1–35) peptide (Homo sapiens, UniProt P16104); test: Surface plasmon resonance, CARP-1 peptide with H2AX (1–35) peptide; type: binding; details: SPR, PBST pH 7.4, 25 °C, 1:1 global fit
# T1 construct: CARP-1 (636–650) and H2AX (1–35) peptides, each with ≥90% purity, were commercially synthesized; purchased
# Procedure: Affinity purification of the Gst-tagged or His-tagged fusion proteins was carried out essentially following procedure previously described by us. Briefly, the bacteria expressing respective fusion protein were cultured in 500 mL of LB medium containing ampicillin until the OD600 reached 0.4–0.6. Protein expression was induced by addition of IPTG over an additional 2–4-h incubation at 37 °C. Cells were harvested, and pellets were stored overnight at −80 °C, and lysed in 4–5 mL of BPER lysis buffer containing DNAse I as detailed above. […] Fractions containing eluted fusion protein were pooled, and dialyzed overnight at 4 °C in 1–2 L of 1× Tris-buffered saline (BioRad, Hercules, CA, USA) with multiple buffer changes. Following measurement of protein concentration, the purified protein was aliquoted and snap-frozen in liquid N2 for storage. […]
# Next, kinetics of CARP-1 binding with H2AX were determined by surface plasmon resonance (SPR) technology (Profacgen, Shirley, NY, USA). […] The signal changes after binding and washing (in AU) were recorded as the assay value. Selected protein-grafted regions in the SPR images were analyzed, and the average reflectivity variations of the chosen areas were plotted as a function of time. Real-time binding signals were recorded and analyzed using a data analysis module (DAM) obtained from Plexera Bioscience (Seattle, WA, USA). […]
compound,measurement,setting,value
Cc1cc(NC(=O)c2cccc(NC(=O)/C=C/CN(C)C)c2)ccc1Nc1nccc(-c2cccnc2)n1 [JNK-IN-8],JNK activation,"[1]; MDA-MB-468, 5 μM JNK-IN-8, WB",total loss of JNK activation
same,levels of CARP-1,"[1]; MDA-MB-468, combination of JNK-IN-8 (5 μM) with Adriamycin, WB",elevated levels of CARP-1
same,γH2AX,"[1]; MDA-MB-468, combined presence of JNK-IN-8 (5 μM) and Adriamycin, WB",reduced levels of γH2AX
same,levels of CARP-1,"[1]; MDA-MB-468, single agent (JNK-IN-8 at 5 μM), WB",elevated levels of CARP-1
same,viabilities,[2],significantly reduced viabilities
"H2AX (1–35): commercially synthesized H2AX (1–35) peptide; epitope of H2AX (tested as EGFP-tagged protein) (MSGRGKTGGKARAKAKSRSSRAGLQFPVGRVHRLL; UniProt P16104 1-35, looked up, fragment)",interaction with DBC1,[3],does not interact
"His-TAT-HA-CARP-1 (631–660): E. coli-expressed His-TAT-HA-tagged CARP-1 peptide (WSKLDPKTMKVNDLRKELESRALSSKGLKS; also: His, TAT and HA tags kept, end not given here)",binding with Gst-H2AX protein,[4],bound with Gst-H2AX protein
same,binding with Gst-H2AX (1–35),[5],bound with Gst-H2AX and Gst-H2AX (1–35) proteins
WSKLDPKTMKVNDLRKELESRALSSKGLKS [CARP-1 (631–660)],kon,[6]; read-out: Ka (association rate constant),2320 M⁻¹ s⁻¹
same,koff,[6]; read-out: Kd (dissociation rate constant),0.000292 s⁻¹
